Format in all cases: functional
In test [1] the test system is Bacillus subtilis. Nature of the test: Antibacterial activity against Bacillus subtilis assessed as zone of inhibition incubated for 3 days by cup plate agar diffusion assay. The note with it: time 3 day. (In agar diffusion tests the substance spreads into inoculated agar from a disc or well.)
In test [2] the test system is Staphylococcus aureus. Nature of the test: Antibacterial activity against Staphylococcus aureus assessed as zone of inhibition incubated for 3 days by cup plate agar diffusion assay. The conditions noted are these: time 3 day.
Test [3] concerns Pseudomonas aeruginosa. Nature of the test: Antibacterial activity against Pseudomonas aeruginosa assessed as zone of inhibition incubated for 3 days by cup plate agar diffusion assay. The note with it: time 3 day.
Test [4] has as its system Escherichia coli. Nature of the test: Antibacterial activity against Escherichia coli assessed as zone of inhibition incubated for 3 days by cup plate agar diffusion assay. The conditions noted are these: time 3 day.
A further test relates to Pseudomonas. Description: Antibacterial activity against Pseudomonas assessed as zone of inhibition.
Test [5] concerns Staphylococcus aureus. Description: Antibacterial activity against Staphylococcus aureus assessed as inhibition of bacterial growth by broth micro dilution assay.
For a further test, the system named is Bacillus. Description: Antibacterial activity against Bacillus assessed as inhibition of bacterial growth by broth micro dilution assay.
The test system of test [6] is Escherichia coli. Description: Antibacterial activity against Escherichia coli assessed as inhibition of bacterial growth by broth micro dilution assay.
Test [7] deals with Sphingomonas paucimobilis. Description: Antibacterial activity against Flavobacterium devorans ATCC 10829 assessed as inhibition of bacterial growth incubated for 24 hrs by serial twofold dilution assay.
Test [8] relates to Staphylococcus aureus. Description: Antibacterial activity against Staphylococcus aureus MTCC 96 assessed as inhibition of bacterial growth incubated for 18 to 20 hrs by broth microdilution assay. The conditions noted are these: time 18-20 hrs. Background: Dilution methods test growth across graded concentrations, often in twofold steps.
In test [9] the test system is Escherichia coli. Nature of the test: Antibacterial activity against Escherichia coli ATCC 8739 assessed as inhibition of bacterial growth incubated for 24 hrs by microbroth dilution assay.
The subject of test [10] is Escherichia coli. Nature of the test: Antibacterial activity against Escherichia coli MTCC 443 assessed as inhibition of bacterial growth incubated for 18 to 20 hrs by broth microdilution assay. The note with it: time 18-20 hrs.
Test [11] deals with Escherichia coli. Nature of the test: Antibacterial activity against Escherichia coli NCIM 2256 assessed as inhibition of bacterial growth incubated for 24 hrs by serial twofold dilution assay.
Another test deals with Enterococcus faecalis. Nature of the test: Antibacterial activity against Enterococcus faecalis PCM 2673 assessed as inhibition of bacterial growth incubated for 24 hrs by microbroth dilution assay.
For a further test, the system named is Pseudomonas fluorescens. Nature of the test: Antibacterial activity against Pseudomonas fluorescens NCIM 2173 assessed as inhibition of bacterial growth incubated for 24 hrs by serial twofold dilution assay.
Test [12] relates to Pseudomonas aeruginosa. Description: Antibacterial activity against Pseudomonas aeruginosa ATCC 27853 assessed as zone of inhibition incubated for 24 hrs by paper disk method.
Test [13] concerns Escherichia coli. Description: Antibacterial activity against Escherichia coli ATCC 25922 assessed as zone of inhibition incubated for 24 hrs by paper disk method.
In test [14] the test system is Escherichia coli. Description: Antibacterial activity against Escherichia coli 1411 assessed as inhibition of bacterial growth incubated for 24 hrs by two-fold serial dilution method.
In test [15] the test system is Escherichia coli. Description: Antibacterial activity against Escherichia coli SM1411 assessed as inhibition of bacterial growth incubated for 24 hrs by two-fold serial dilution method.
For test [16], the system named is Staphylococcus aureus. Description: Antibacterial activity against Staphylococcus aureus assessed as inhibition of bacterial growth by broth dilution assay.
The test system of test [17] is Bacillus subtilis. Description: Antibacterial activity against Bacillus subtilis assessed as inhibition of bacterial growth by broth dilution assay.

Structures are written as SMILES. Values after ≈ are worked out from the molar mass of the structure shown.

For the compound `Cc1cc(=O)oc2c(C(=O)/C=C/c3ccc(F)cc3)c(OCc3cnnn3Cc3ccccc3)ccc12`, the “inhibition zone (IZ)” value in the test on Bacillus subtilis [1] is recorded as 11 mm; with Staphylococcus aureus [2] it was 27 mm; in the test on Pseudomonas aeruginosa [3], 10 mm; in the test with Escherichia coli [4], 27 mm.
On to `O=c1cc(-c2nc3ccccc3[nH]2)c2cc(Cl)ccc2o1`, for which, in the test with Pseudomonas, the inhibition zone (IZ) stood at 8 mm.
Take `Cc1ccc2oc(=O)cc(C3NNC(=O)N3)c2c1` (configuration not stated): the minimal inhibitory concentration (MIC) – broadly, the lowest concentration that inhibits growth of the organism – in the test on Staphylococcus aureus [5] is 1.6 µg/mL (≈ 6.52 µM); in the test on Bacillus it was 0.8 µg/mL (≈ 3.26 µM); in the test on Escherichia coli [6], 0.8 µg/mL (≈ 3.26 µM).
Turning to `O=C(N[C@H](CO)[C@H](O)c1ccc([N+](=O)[O-])cc1)C(Cl)Cl` [CHLORAMPHENICOL], the MIC in test [7] came out at 2 µg/mL (≈ 6.19 µM); with Staphylococcus aureus [8], 50 µg/mL (≈ 155 µM); in the test with Escherichia coli [9], 1.2 µg/mL (≈ 3.71 µM); in the test with Escherichia coli [10], 50 µg/mL (≈ 155 µM); in the test with Escherichia coli [11] it was 2 µg/mL (≈ 6.19 µM); in the test on Enterococcus faecalis, 5 µg/mL (≈ 15.5 µM). The MIC in the test on Pseudomonas fluorescens was 2 µg/mL (≈ 6.19 µM).
In the case of `Cc1cc(=O)oc2cc(OC(=O)CNC3N=C(c4ccc(F)cc4)C=C(c4cccc(Oc5ccccc5)c4)S3)c([N+](=O)[O-])cc12` (configuration not stated), the MIC in the test on Staphylococcus aureus [8] turned out to be 200 µg/mL (≈ 314 µM); in the test with Escherichia coli [10] it was 250 µg/mL (≈ 392 µM).
The corresponding values for `Cc1cc(=O)oc2cc(OC(=O)CNC3N=C(c4ccc(F)cc4)C=C(c4ccc(F)cc4)S3)c([N+](=O)[O-])cc12` (configuration not stated) are 125 µg/mL (≈ 222 µM) and 200 µg/mL (≈ 355 µM).
Turning to `C[C@@H](NC(=O)COc1cc(=O)oc2ccccc12)c1cccc2ccccc12`, the entries for the “inhibition zone (IZ)” value with Pseudomonas aeruginosa [12] and in the test with Escherichia coli [13] were 14 mm and 12 mm, respectively.
With `Cc1ccc(C2CC(c3cc4ccccc4oc3=O)=NN2)cc1` (configuration not stated), the MIC worked out at 16 µg/mL (≈ 52.6 µM) in the test on Escherichia coli [14] and 18 µg/mL (≈ 59.1 µM) with Escherichia coli [15].
In the case of `Cc1cc(C)c2c(C3NNC(=O)N3)cc(=O)oc2c1` (configuration not stated), the MIC in the test on Staphylococcus aureus [5] came to 6.25 µg/mL (≈ 24.1 µM); with Bacillus it was 6.25 µg/mL (≈ 24.1 µM); in the test with Escherichia coli [6], 50 µg/mL (≈ 193 µM).
`COc1ccc2oc(=O)cc(-c3nc4ccccc4[nH]3)c2c1`: the inhibition zone (IZ) with Pseudomonas was found to be 4 mm.
In the case of `N[C@@H]1CONC1=O` [CYCLOSERINE], the MIC in the test with Escherichia coli [14] and in the test with Escherichia coli [15] was 16 µg/mL (≈ 157 µM) throughout.
Take `O=c1cc(OCc2cn(-c3ccc(F)cc3)nn2)c2ccccc2o1`: the values for the minimum inhibitory concentration (MIC) in the test with Escherichia coli [9] and in the test on Enterococcus faecalis were 1600 µg/mL (≈ 4740 µM) and 400 µg/mL (≈ 1190 µM), respectively.
Consider `O=C1NNC(c2cc(=O)oc3ccc(Cl)cc23)N1` (configuration not stated), for which the MIC was 25 µg/mL (≈ 94.1 µM) with Staphylococcus aureus [5], 6.25 µg/mL (≈ 23.5 µM) in the test with Bacillus and 25 µg/mL (≈ 94.1 µM) in the test with Escherichia coli [6].
Turning to `Cc1ccc(/C=C/C(=O)c2c(OCc3cnnn3Cc3ccccc3)ccc3c(C)cc(=O)oc23)cc1`, the “inhibition zone (IZ)” value in the test with Bacillus subtilis [1] is 6 mm; in the test on Staphylococcus aureus [2], 17 mm; with Pseudomonas aeruginosa [3] it was 7 mm; with Escherichia coli [4] it was 14 mm.
Take `COc1ccc(/C=C/C(=O)c2c(OCc3cnnn3Cc3ccccc3)ccc3c(C)cc(=O)oc23)cc1`: the “inhibition zone (IZ)” value is 11 mm in the test with Bacillus subtilis [1], 28 mm in the test with Staphylococcus aureus [2], 9 mm in the test with Pseudomonas aeruginosa [3] and 28 mm in the test on Escherichia coli [4].
As for `O=c1oc2ccc(Br)cc2cc1-c1cc2c(ccc3ccccc32)o1`, the values for the MIC with Staphylococcus aureus [16] and in the test with Bacillus subtilis [17] were 0.2 µg/mL (≈ 0.511 µM) and 6.25 µg/mL (≈ 16 µM), respectively.
As for `CC1(C)S[C@@H]2[C@H](NC(=O)[C@H](N)c3ccc(O)cc3)C(=O)N2[C@H]1C(=O)O` [AMOXICILLIN], the “inhibition zone (IZ)” value with Bacillus subtilis [1] was 12 mm; in the test on Staphylococcus aureus [2], 30 mm; in the test with Pseudomonas aeruginosa [3] it was 10 mm; in the test with Escherichia coli [4], 30 mm.
For `Cc1cc(OCc2cn(Cc3ccc(Br)cc3)nn2)cc2oc(=O)ccc12`, the MIC in test [7] came out at 2 µg/mL (≈ 4.69 µM); in the test on Escherichia coli [11], 4 µg/mL (≈ 9.38 µM); in the test with Pseudomonas fluorescens, 4 µg/mL (≈ 9.38 µM).
As for `Cc1ccc2cc(-c3cc4ccccc4oc3=O)oc2c1`, the MIC in the test with Staphylococcus aureus [16] and in the test on Bacillus subtilis [17] was 0.2 µg/mL (≈ 0.724 µM) each time.
In the case of `Cc1ccc2oc(=O)cc(-c3nc4ccccc4[nH]3)c2c1`, the inhibition zone (IZ) in the test with Pseudomonas amounted to 4.1 mm.
With `Cc1ccc2c(C3NNC(=O)N3)cc(=O)oc2c1C` (configuration not stated), the MIC was found to be 12.6 µg/mL (≈ 48.6 µM) in the test with Staphylococcus aureus [5], 3.12 µg/mL (≈ 12 µM) with Bacillus and 25 µg/mL (≈ 96.4 µM) in the test on Escherichia coli [6].
As to `Cc1cc(=O)oc2c(C(=O)/C=C/c3ccccc3)c(OCc3cnnn3Cc3ccccc3)ccc12`, the “inhibition zone (IZ)” value is 8 mm with Bacillus subtilis [1], 11 mm with Staphylococcus aureus [2], 4 mm in the test on Pseudomonas aeruginosa [3] and 10 mm in the test with Escherichia coli [4].
For `O=c1oc2ccc(Br)cc2cc1-c1cc2ccc3ccccc3c2o1`, the minimal inhibitory concentration (MIC) with Staphylococcus aureus [16] worked out at 0.2 µg/mL (≈ 0.511 µM); with Bacillus subtilis [17], 0.8 µg/mL (≈ 2.04 µM).
In the case of `O=c1cc(-c2nc3ccccc3[nH]2)c2cc(Br)ccc2o1`, the inhibition zone (IZ) in the test on Pseudomonas was determined as 4.8 mm.
Regarding `Cc1ccc2c(C3NNC(=O)N3)cc(=O)oc2c1` (configuration not stated), the MIC in the test with Staphylococcus aureus [5], in the test with Bacillus and with Escherichia coli [6] was 1.6 µg/mL (≈ 6.52 µM) each time.
